# Test results reported in patent US11098073B2, “Triphenylphosphonium-tethered tetracyclines for use in treating cancer” (Oxford University Innovation Limited, priority 2017, dated 2021).
# Counter-ions that a name gives are not always drawn.
# System: MDA-231 cancer cells
# Assay: Inhibition of proliferation assay: cell confluence (IncuCyte live cell imaging)
# Type: cell-based
# Settings: compound tested at 10 μM, images every 3 h over 4-5 d, relative confluence normalised to time zero
# Text: Inhibition of Proliferation Assay
# The confluence value is a surrogate for cell proliferation and growth. The value is expressed as a percent confluence, which represents the fraction of culture dish-surface that is occupied by cells. As the number of cells in the dish increases over time due to proliferation, so will their coverage of that surface increase. Expansion of the cell population on the cell culture-dish surface and confluence have mostly a linear relationship until the cells on the plate surface begin to reach saturation or maximum density.
# Confluence is determined based on image analysis. Image based software can identify objects in the image field base on changes to pixel density in a grey scale image. The software can then assign a mask to those pixels within the object. Objects can be ‘gated’ out based on size and shape. To determine cell confluence, images of cells are first masked as objects. The surface area of the image that is masked is measured and compared to the total surface area of the culture dish surface to obtain a percent confluence.
# MDA-231 cancer cells were obtained from ATCC. Cells were cultured in Dulbecco's Modified Eagle Medium (DMEM) supplemented with 10% Fetal Bovine Serum (FBS), 2 mM Glutamax, 1 mM Non Essential Amino Acid (NEAA) solution and 1 mM sodium pyruvate. […] Final DMSO concentrations were […]. Images were acquired with an IncuCyte Live Cell Imaging microscopy (Essen Bioscience) at every 3 h under cell culture conditions with 10 OX objective over 4-5 d. Cell confluence was calculated from one field of view per well using the IncuCyte in-built algorithm. Relative confluence values were obtained by normalising each value to the time zero value in each sample.
row,SMILES,% Confluence
1,"C[C@H]1c2cccc(O)c2C(=O)C2=C(O)[C@]3(O)C(=O)C(C(N)=O)=C(O)[C@@H](N(C)C)[C@@H]3[C@@H](O)[C@@H]21 [Doxycycline, reference compound]",98.7%
2,"C[C@H]1c2ccc(NC(=O)CCCCCCCCCCC[P+](c3ccccc3)(c3ccccc3)c3ccccc3)c(O)c2C(=O)C2=C(O)[C@]3(O)C(=O)C(C(N)=O)=C(O)[C@@H](N(C)C)[C@@H]3[C@@H](O)[C@@H]21 [Example 1, (11-{[(5R,5aR,6S,6aR,7S,10aS)-9-carbamoyl-7-(dimethylamino)-1,6,8,10a,11-pentahydroxy-5-methyl-10,12-dioxo-5,5a,6,6a,7,10,10a,12-octahydrotetracen-2-yl]carbamoyl}undecyl)triphenylphosphonium formate]",27.1%
3,"C[C@H]1c2ccc(NC(=O)CCCCCCC[P+](c3ccccc3)(c3ccccc3)c3ccccc3)c(O)c2C(=O)C2=C(O)[C@]3(O)C(=O)C(C(N)=O)=C(O)[C@@H](N(C)C)[C@@H]3[C@@H](O)[C@@H]21 [Example 2, (7-{[(5R,5aR,6S,6aR,7S,10aS)-9-carbamoyl-7-(dimethylamino)-1,6,8,10a,11-pentahydroxy-5-methyl-10,12-dioxo-5,5a,6,6a,7,10,10a,12-octahydrotetracen-2-yl]carbamoyl}heptyl)triphenylphosphonium formate]",81.2%
4,"C[C@H]1c2ccc(NC(=O)CNC(=O)CCCCCCC[PH](c3ccccc3)(c3ccccc3)c3ccccc3)c(O)c2C(=O)C2=C(O)[C@]3(O)C(=O)C(C(N)=O)=C(O)[C@@H](N(C)C)[C@@H]3[C@@H](O)[C@@H]21 [Example 3, {7-[({[(5R,5aR,6S,6aR,7S,10aS)-9-carbamoyl-7-(dimethylamino)-1,6,8,10a,11-pentahydroxy-5-methyl-10,12-dioxo-5,5a,6,6a,7,10,10a,12-octahydrotetracen-2-yl]carbamoyl}methyl)carbamoyl]heptyl}triphenylphosphonium trifluoroacetate]",99.9%
5,"C[C@H]1c2c(NC(=O)CCCCCCC[P+](c3ccccc3)(c3ccccc3)c3ccccc3)ccc(O)c2C(=O)C2=C(O)[C@]3(O)C(=O)C(C(N)=O)=C(O)[C@@H](N(C)C)[C@@H]3[C@@H](O)[C@@H]21 [Example 4, (7-{[(6aS,10S,10aR,11S,11aR,12R)-8-carbamoyl-10-(dimethylamino)-4,6,6a,9,11-pentahydroxy-12-methyl-5,7-dioxo-5,6a,7,10,10a,11,11a,12-octahydrotetracen-1-yl]carbamoyl}heptyl)triphenylphosphonium trifluoroacetate]",124.3%
6,"C[C@H]1c2ccc(CNC(=O)CCCCCCCCC[P+](c3ccccc3)(c3ccccc3)c3ccccc3)c(O)c2C(=O)C2=C(O)[C@]3(O)C(=O)C(C(N)=O)=C(O)[C@@H](N(C)C)[C@@H]3[C@@H](O)[C@@H]21 [Example 5, trifluoroacetate]",37%
7,"C[C@H]1c2ccc(NC(=O)CCCCCCCCCC[P+](c3ccccc3)(c3ccccc3)c3ccccc3)c(O)c2C(=O)C2=C(O)[C@]3(O)C(=O)C(C(N)=O)=C(O)[C@@H](N(C)C)[C@@H]3[C@@H](O)[C@@H]21 [Example 6, (10-{[(5R,5aR,6S,6aR,7S,10aS)-9-carbamoyl-7-(dimethylamino)-1,6,8,10a,11-pentahydroxy-5-methyl-10,12-dioxo-5,5a,6,6a,7,10,10a,12-octahydrotetracen-2-yl]carbamoyl}decyl)triphenylphosphonium trifluoroacetate]",36.8%
8,"C[C@H]1c2ccc(NC(=O)CCCCCCCCC[P+](c3ccccc3)(c3ccccc3)c3ccccc3)c(O)c2C(=O)C2=C(O)[C@]3(O)C(=O)C(C(N)=O)=C(O)[C@@H](N(C)C)[C@@H]3[C@@H](O)[C@@H]21 [Example 7, (9-{[(5R,5aR,6S,6aR,7S,10aS)-9-carbamoyl-7-(dimethylamino)-1,6,8,10a,11-pentahydroxy-5-methyl-10,12-dioxo-5,5a,6,6a,7,10,10a,12-octahydrotetracen-2-yl]carbamoyl}nonyl)triphenylphosphonium trifluoroacetate]",38.7%
9,"C[C@H]1c2ccc(NC(=O)CNC(=O)CCCCC[P+](c3ccccc3)(c3ccccc3)c3ccccc3)c(O)c2C(=O)C2=C(O)[C@]3(O)C(=O)C(C(N)=O)=C(O)[C@@H](N(C)C)[C@@H]3[C@@H](O)[C@@H]21 [Example 8, {5-[({[(5R,5aR,6S,6aR,7S,10aS)-9-carbamoyl-7-(dimethylamino)-1,6,8,10a,11-pentahydroxy-5-methyl-10,12-dioxo-5,5a,6,6a,7,10,10a,12-octahydrotetracen-2-yl]carbamoyl}methyl)carbamoyl]pentyl}triphenylphosphonium trifluoroacetate]",96.2%
10,"C[C@H]1c2ccc(NC(=O)CNC(=O)CCC[P+](c3ccccc3)(c3ccccc3)c3ccccc3)c(O)c2C(=O)C2=C(O)[C@]3(O)C(=O)C(C(N)=O)=C(O)[C@@H](N(C)C)[C@@H]3[C@@H](O)[C@@H]21 [Example 9, {3-[({[(5R,5aR,6S,6aR,7S,10aS)-9-carbamoyl-7-(dimethylamino)-1,6,8,10a,11-pentahydroxy-5-methyl-10,12-dioxo-5,5a,6,6a,7,10,10a,12-octahydrotetracen-2-yl]carbamoyl}methyl)carbamoyl]propyl}triphenylphosphonium trifluoroacetate]",83%
11,"C[C@H]1c2ccc(NC(=O)CCNC(=O)CCCCCCC[P+](c3ccccc3)(c3ccccc3)c3ccccc3)c(O)c2C(=O)C2=C(O)[C@]3(O)C(=O)C(C(N)=O)=C(O)[C@@H](N(C)C)[C@@H]3[C@@H](O)[C@@H]21 [Example 10, {7-[(2-{[(5R,5aR,6S,6aR,7S,10aS)-9-carbamoyl-7-(dimethylamino)-1,6,8,10a,11-pentahydroxy-5-methyl-10,12-dioxo-5,5a,6,6a,7,10,10a,12-octahydrotetracen-2-yl]carbamoyl}ethyl)carbamoyl]heptyl}triphenylphosphonium trifluoroacetate]",92.2%
12,"C[C@H]1c2ccc(NC(=O)CCNC(=O)CCCCCCCCC[P+](c3ccccc3)(c3ccccc3)c3ccccc3)c(O)c2C(=O)C2=C(O)[C@]3(O)C(=O)C(C(N)=O)=C(O)[C@@H](N(C)C)[C@@H]3[C@@H](O)[C@@H]21 [Example 11, {9-[(2-{[(5R,5aR,6S,6aR,7S,10aS)-9-carbamoyl-7-(dimethylamino)-1,6,8,10a,11-pentahydroxy-5-methyl-10,12-dioxo-5,5a,6,6a,7,10,10a,12-octahydrotetracen-2-yl]carbamoyl}ethyl)carbamoyl]nonyl}triphenylphosphonium trifluoroacetate]",45%
13,"C[C@H]1c2ccc(NC(=O)CCNC(=O)CCCC[P+](c3ccccc3)(c3ccccc3)c3ccccc3)c(O)c2C(=O)C2=C(O)[C@]3(O)C(=O)C(C(N)=O)=C(O)[C@@H](N(C)C)[C@@H]3[C@@H](O)[C@@H]21 [Example 12, {4-[(2-{[(5R,5aR,6S,6aR,7S,10aS)-9-carbamoyl-7-(dimethylamino)-1,6,8,10a,11-pentahydroxy-5-methyl-10,12-dioxo-5,5a,6,6a,7,10,10a,12-octahydrotetracen-2-yl]carbamoyl}ethyl)carbamoyl]butyl}triphenylphosphonium trifluoroacetate]",91.9%
14,"C[C@H]1c2c(NC(=O)CCCCCCCCCCC[P+](c3ccccc3)(c3ccccc3)c3ccccc3)ccc(O)c2C(=O)C2=C(O)[C@]3(O)C(=O)C(C(N)=O)=C(O)[C@@H](N(C)C)[C@@H]3[C@@H](O)[C@@H]21 [Example 13, (11-{[(6aS,10S,10aR,11 S,11 aR,12R)-8-carbamoyl-10-(dimethylamino)-4,6,6a,9,11-pentahydroxy-12-methyl-5,7-dioxo-5,6a,7,10,10a,11,11a,12-octahydrotetracen-1-yl]carbamoyl}undecyl)triphenylphosphonium trifluoroacetate]",53.7%
15,"C[C@H]1c2c(NC(=O)CCCCCCCCC[P+](c3ccccc3)(c3ccccc3)c3ccccc3)ccc(O)c2C(=O)C2=C(O)[C@]3(O)C(=O)C(C(N)=O)=C(O)[C@@H](N(C)C)[C@@H]3[C@@H](O)[C@@H]21 [Example 14, (9-{[(6aS,10S,10aR,11 S,11 aR,12R)-8-carbamoyl-10-(dimethylamino)-4,6,6a,9,11-pentahydroxy-12-methyl-5,7-dioxo-5,6a,7,10,10a,11,11a,12-octahydrotetracen-1-yl]carbamoyl}nonyl)triphenylphosphonium trifluoroacetate]",87.9%
16,"C[C@H]1c2c(NC(=O)CCNC(=O)CCCCCCC[P+](c3ccccc3)(c3ccccc3)c3ccccc3)ccc(O)c2C(=O)C2=C(O)[C@]3(O)C(=O)C(C(N)=O)=C(O)[C@@H](N(C)C)[C@@H]3[C@@H](O)[C@@H]21 [Example 15, {7-[(2-{[(6aS,10S,10aR,11S,11aR,12R)-8-carbamoyl-10-(dimethylamino)-4,6,6a,9,11-pentahydroxy-12-methyl-5,7-dioxo-5,6a,7,10,10a,11,11a,12-octahydrotetracen-1-yl]carbamoyl}ethyl)carbamoyl}heptyl}triphenylphosphonium trifluoroacetate]",112.8%

# Same assay, conditions: compound tested at 50 μM, images every 3 h over 4-5 d, relative confluence normalised to time zero
row,SMILES,% Confluence
1,"C[C@H]1c2cccc(O)c2C(=O)C2=C(O)[C@]3(O)C(=O)C(C(N)=O)=C(O)[C@@H](N(C)C)[C@@H]3[C@@H](O)[C@@H]21 [Doxycycline, reference compound]",91%
